From article PMC6070996 (Marine Drugs, 2018)

Key:
[1] = tested on: zebrafish eleuthero-embryos; design: method as in PMID 24561424; conditions: genes of DNA damage recognition and repair, circadian rhythm; cited from earlier work
[2] = tested on: human hepatoma cell line Huh7; design: method as in PMID 27428998; conditions: cited from earlier work
factor XIa = tested on: factor XIa; design: method as in PMID 20405925; conditions: cited from earlier work
small crustaceans = tested on: small crustaceans; design: method as in doi:10.2216/i0031-8884-35-6S-111.1, PMID 20405925, PMID 12662108; conditions: cited from earlier work
plasmin = conditions: cited from earlier work
[3] = target: T1, elastase from porcine pancreas (Sus scrofa, UniProt P00772); assay: elastase inhibition assay; format: biochemical; design: key: - not active; */** small/medium activity; */** small/medium activity; conditions: highest concentration 45.4 μg/mL
T1 construct: purchased Sigma-Aldrich E0258; host or cells: porcine pancreas
T1 sequence (P00772 27-266): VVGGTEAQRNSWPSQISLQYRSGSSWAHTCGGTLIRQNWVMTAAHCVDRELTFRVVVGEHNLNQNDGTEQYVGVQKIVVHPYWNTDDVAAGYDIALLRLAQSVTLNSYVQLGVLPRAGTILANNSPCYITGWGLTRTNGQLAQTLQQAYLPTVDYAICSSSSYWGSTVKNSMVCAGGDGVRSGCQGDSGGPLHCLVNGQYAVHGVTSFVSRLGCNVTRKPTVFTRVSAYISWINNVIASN

human kallikrein = tested on: human kallikrein; design: method as in PMID 20405925; conditions: cited from earlier work
trypsin = conditions: cited from earlier work
[4] = target: T2, protein phosphatase 1 (PP1) (Oryctolagus cuniculus, UniProt P62139); assay: protein phosphatase 1 inhibition assay; format: biochemical; design: key: - not active; */** small/medium activity; */** small/medium activity; conditions: highest concentration 45.4 μg/mL
T2 construct: purchased England Biolabs, Hitchin, UK (New England Biolabs) 754S
T2 sequence (P62139 whole entry): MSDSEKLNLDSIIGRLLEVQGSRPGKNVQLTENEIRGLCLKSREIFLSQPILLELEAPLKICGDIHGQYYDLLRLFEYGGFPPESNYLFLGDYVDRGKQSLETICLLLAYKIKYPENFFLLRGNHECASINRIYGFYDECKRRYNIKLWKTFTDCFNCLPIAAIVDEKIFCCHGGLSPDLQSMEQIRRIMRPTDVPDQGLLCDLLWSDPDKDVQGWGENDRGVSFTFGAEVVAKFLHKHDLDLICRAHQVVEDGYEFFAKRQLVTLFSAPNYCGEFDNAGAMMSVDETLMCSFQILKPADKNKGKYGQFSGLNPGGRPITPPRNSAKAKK

Chymotrypsin = conditions: cited from earlier work
Thrombin [5] = target: T3, Thrombin (Bos taurus, UniProt P00735); assay: thrombin inhibition assay; format: biochemical; design: key: - not active; */** small/medium activity; */** small/medium activity; conditions: highest concentration 45.4 μg/mL
T3 construct: purchased Sigma-Aldrich T4648

isolated rat hepatocytes = tested on: isolated rat hepatocytes; design: method as in doi:10.2216/i0031-8884-35-6S-111.1; conditions: cited from earlier work
Daphnia magna = conditions: compared with microcystin-LR; cited from earlier work
PP1 = conditions: cited from earlier work
mice = conditions: cited from earlier work
Elastase = target: Elastase; design: method as in doi:10.1021/np960649a; conditions: cited from earlier work
papain = tested on: papain; design: method as in doi:10.1021/np960649a; conditions: cited from earlier work
Thrombin [6] = target: T3, Thrombin; design: method as in doi:10.1021/np960649a; conditions: cited from earlier work
[7] = tested on: neuro-2A neuroblastoma cells; design: method as in PMID 18163584; conditions: cited from earlier work
[8] = tested on: NCI H460 lung cancer cells; design: method as in PMID 18163584; conditions: cited from earlier work

CCCCCC(=O)N[C@@H](CCC(=O)O)C(=O)N[C@@H]1C(=O)N[C@@H](CCCNC(=N)N)C(=O)N[C@H]2CC[C@@H](O)N(C2=O)[C@@H](Cc2ccccc2)C(=O)N(C)[C@@H](Cc2ccc(O)cc2)C(=O)N[C@@H](C(C)C)C(=O)O[C@@H]1C [CP1020, cyanopeptolin 1020]
transcriptional alterations of genes in zebrafish eleuthero-embryos [1]: led to transcriptional alterations of genes | anti-inflammatory effects in Huh7 [2]: induction of anti-inflammatory effects

CCCCCC(=O)N[C@@H](CC(=O)O)C(=O)N[C@@H]1C(=O)N[C@@H](CCCNC(=N)N)C(=O)N[C@H]2CC[C@@H](O)N(C2=O)[C@@H](Cc2ccccc2)C(=O)N(C)[C@@H](CCc2ccc(O)cc2)C(=O)N[C@@H](C(C)C)C(=O)O[C@@H]1C [CP 1020, [Thr+Arg+Ahp+Phe+MeHty+Val]Asp+HA]
activity against factor XIa (factor XIa): active | acute effects in small crustaceans (small crustaceans): induced acute effects | activity against plasmin (plasmin): active | Enzyme Inhibition Elastase (activity class) [3]: - | activity against human kallikrein (human kallikrein): active | inhibition of trypsin (trypsin): Picomolar inhibition | Enzyme Inhibition Protein Phosphatase 1 (activity class) [4]: - | activity against chymotrypsin (Chymotrypsin): active | Enzyme Inhibition Thrombin (activity class) (Thrombin [5]): -

CC[C@H](C)[C@@H]1NC(=O)[C@H](Cc2ccccc2)N(C)C(=O)[C@H]([C@@H](C)CC)N2C(=O)[C@H](CC[C@H]2O)NC(=O)[C@H](CCCN=C(N)N)NC(=O)[C@@H](NC(=O)[C@@H](COS(=O)(=O)O)OS(=O)(=O)O)[C@@H](C)OC1=O [CP SS]
acute effects in small crustaceans (small crustaceans): induced acute effects | inhibition of plasmin (plasmin): inhibited plasmin | toxicity to isolated rat hepatocytes (isolated rat hepatocytes): not toxic | toxicity against Daphnia magna (Daphnia magna): even higher than for microcystin-LR

CC[C@H](C)[C@H](NC(=O)[C@H](O)Cc1ccc(O)cc1)C(=O)N[C@@H](CCO)C(=O)N[C@@H]1C(=O)N[C@@H](CCO)C(=O)N[C@H]2CC[C@@H](O)N(C2=O)[C@@H](Cc2ccccc2)C(=O)N(C)[C@@H](Cc2ccc(O)cc2)C(=O)N[C@@H](C(C)C)C(=O)O[C@@H]1C [Nostocyclin, [Thr+Hse+Ahp+Phe+MeTyr+Val]Hse+Ile+Hpla]
activity against protein phosphatases (PP1; protein phosphatases): weak activity | IC50 (PP1; read-out: Enzyme Inhibition PP1 IC50): 64 µM | toxicity in mouse bioassay (mice): not toxic

CCCC(=O)N[C@@H](CCC(N)=O)C(=O)N1CC(C)C2OC(=O)[C@H]([C@@H](C)CC)NC(=O)[C@H](Cc3ccc(O)cc3)N(C)C(=O)[C@H]([C@@H](C)CC)N3C(=O)C(CCC3O)NC(=O)[C@H](CC(C)C)NC(=O)[C@H]21 (stereo partly shown) [Nostopeptin A, [Hmp+Leu+Ahp+Ile+MeTyr+Ile]Gln+BA]
Enzyme Inhibition Elastase IC50 (Elastase): 1.3 µg/mL | activity against papain (papain): inactive | activity against plasmin (plasmin): inactive | activity against trypsin (trypsin): inactive | Enzyme Inhibition Chymotrypsin IC50 (Chymotrypsin): 1.4 µg/mL | activity against thrombin (Thrombin [6]): inactive

CC[C@H](C)[C@@H]1NC(=O)[C@H](Cc2ccc(O)cc2)N(C)C(=O)[C@H]([C@@H](C)CC)N2C(=O)C(CCC2O)NC(=O)[C@H](CC(C)C)NC(=O)[C@@H]2C(OC1=O)C(C)CN2C(=O)[C@H](CCC(N)=O)NC(C)=O (stereo partly shown) [Nostopeptin B, [Hmp+Leu+Ahp+Ile+MeTyr+Ile]Gln+Ac]
Enzyme Inhibition Elastase IC50 (Elastase): 11.0 µg/mL | activity against papain (papain): inactive | activity against plasmin (plasmin): inactive | activity against trypsin (trypsin): inactive | Enzyme Inhibition Chymotrypsin IC50 (Chymotrypsin): 1.6 µg/mL | activity against thrombin (Thrombin [6]): inactive

CCCC(=O)N[C@@H](CCC(N)=O)C(=O)N[C@@H]1C(=O)N[C@@H](CCCNC(N)=O)C(=O)N[C@H]2CC[C@@H](O)N(C2=O)[C@@H]([C@@H](C)CC)C(=O)N(C)[C@@H](Cc2ccc(OC)c(Br)c2)C(=O)N[C@@H](C(C)C)C(=O)O[C@@H]1C [Symplocamide A]
cytotoxic activity to neuro-2A neuroblastoma cells [7]: cytotoxic activity | cytotoxic activity to NCI H460 lung cancer cells [8]: cytotoxic activity | IC50 (trypsin): 80.2 µM | IC50 (Chymotrypsin; read-out: chymotrypsin IC50): 380 nM
